In this test the target is mTOR enzyme (Homo sapiens, UniProt P42345). In words: mTOR Kinase Assay. Format: biochemical. The settings on record: 5 μM ATP, 0.1 μM GSTS6K substrate. How it is done:
The mTOR assay buffer contains 10 mM hepes (pH 7.4), 50 mM NaCl, 100 μg/ml BSA, 50 mM B-glycerophosphate, 10 mM MnCl2 and 0.5 mM DTT. 20 ng of mTOR enzyme is preincubated with the compound for 10 minutes. 5 μM ATP and 0.1 μM GSTS6K is added. The reaction is incubated for one hour at 30° C. Anti phospho p70S6K (about 1.7 ng/well) and anti GSTXL665 (1:1 Ratio with the substrate GSTS6K) are added after incubating. The plates are read at least 2 hours after adding the anti phospho p70S6K and the anti GSTXL665.
Dose-response curves were plotted from inhibition data generated, each in duplicate, from 8 point serial dilutions of inhibitory compounds. Concentration of compound was plotted against % kinase activity, calculated by CPM of treated samples divided by CPM of untreated samples. To generate IC50 values, the dose-response curves were then fitted to a standard sigmoidal curve and IC50 values were derived by nonlinear regression analysis.
In the case of `O=C1CCNc2c1c(C1CCN(C(=O)c3nnc[nH]3)CC1)nc1c(-c3ccc(-c4ccccc4)nc3)cnn21` [Example 15, 5-(1-(4H-1,2,4-triazole-3-carbonyl)piperidin-4-yl)-3-(6-phenylpyridin-3-yl)-8,9-dihydropyrazolo[1,5-a]pyrido[3,2-e]pyrimidin-6(7H)-one], the IC50 was under 10 nM.
The result for `O=C1CCNc2c1c(N1CCS(=O)(=O)CC1)nc1c(-c3ccc(-c4ccccc4)nc3)cnn21` [Example 22] reads under 10 nM; that for `O=C1CCNc2c1c(C1CC3CCC(C1)N3C(=O)c1nnc[nH]1)nc1c(-c3ccc(-c4ccccn4)nc3)cnn21` (stereo not drawn) [Example 12], under 10 nM; that for `O=C1CCNc2c1c(N1CCS(=O)(=O)CC1)nc1c(-c3cnc4ccc(F)cc4c3)cnn21` [Example 21], under 10 nM.
The result for `COCCO[C@]1(C(=O)O)CC[C@@H](c2nc3c(-c4cnn(-c5ccccc5)c4)cnn3c3c2C(=O)CCN3)CC1` [Example 25, (1r,4r)-1-(2-methoxyethoxy)-4-(6-oxo-3-(1-phenyl-1H-pyrazol-4-yl)-6,7,8,9-tetrahydropyrazolo[1,5-a]pyrido[3,2-e]pyrimidin-5-yl)cyclohexanecarboxylic acid] reads under 10 nM.
The result for `Cn1ccc(-c2ccc(-c3cnn4c5c(c(C6CC7CCC(C6)N7C(=O)C(C)(CO)CO)nc34)C(=O)CCN5)cn2)n1` (stereo not drawn) [Example 5] reads under 10 nM.
As for “(1r,4r)-1-(2-methoxyethoxy)-4-(3-(6-(1-methyl-1H-pyrazol-3-yl)pyridin-3-yl)-6-oxo-6,7,8,9-tetrahydropyrazolo[1,5-a]pyrido[3,2-e]pyrimidin-5-yl)cyclohexanecarboxylic acid [Example 26]”, the IC50 is under 10 nM.
With `O=C1CCNc2c1c(C1CC3CCC(C1)N3C(=O)c1nnc[nH]1)nc1c(-c3ccc(-c4ccccc4)nc3)cnn21` (stereo not drawn) [Example 1, 5-(8-(4H-1,2,4-triazole-3-carbonyl)-8-azabicyclo[3.2.1]octan-3-yl)-3-(6-phenylpyridin-3-yl)-8,9-dihydropyrazolo[1,5-a]pyrido[3,2-e]pyrimidin-6(7H)-one] the figure was under 10 nM; with `O=C1CCNc2c1c(C1CCN(C(=O)CO)CC1)nc1c(-c3ccc(-c4ccccc4)nc3)cnn21` [Example 16], under 10 nM; with `CC(CO)(CO)C(=O)N1CCC(c2nc3c(-c4ccc(-c5ccccc5)nc4)cnn3c3c2C(=O)CCN3)CC1` [Example 18], under 10 nM.
The result for `O=C(c1nnc[nH]1)N1C2CCC1CC(c1nc3c(-c4ccc(-c5ccccc5)nc4)cnn3c3[nH]ccc(=O)c13)C2` (stereo not drawn) [Example 2, 5-(8-(4H-1,2,4-triazole-3-carbonyl)-8-azabicyclo[3.2.1]octan-3-yl)-3-(6-phenylpyridin-3-yl)pyrazolo[1,5-a]pyrido[3,2-e]pyrimidin-6(9H)-one] reads under 10 nM; that for `COc1ccc(-c2ccc(-c3cnn4c5c(c(C6CC7CCC(C6)N7C(=O)CO)nc34)C(=O)CCN5)cn2)cc1F` (stereo not drawn) [Example 6], under 10 nM; that for `O=C1CCNc2c1c(C1CCS(=O)(=O)CC1)nc1c(-c3cnc4ccccc4c3)cnn21` [Example 24, 3-(quinolin-3-yl)-5-(tetrahydro-1,1-dioxido-2H-thiopyran-4-yl)-8,9-dihydropyrazolo[1,5-a]pyrido[3,2-e]pyrimidin-6(7H)-one], 10 to 100 nM.
The result for `O=C1CCNc2c1c(C1CCS(=O)(=O)CC1)nc1c(-c3ccc(-c4ccccc4)nc3)cnn21` [Example 23, 3-(6-phenylpyridin-3-yl)-5-(tetrahydro-1,1-dioxido-2H-thiopyran-4-yl)-8,9-dihydropyrazolo[1,5-a]pyrido[3,2-e]pyrimidin-6(7H)-one] reads under 10 nM.
`COc1ccc(-c2ccc(-c3cnn4c5c(c(C6CC7CCC(C6)N7C(=O)C(C)(CO)CO)nc34)C(=O)CCN5)cn2)cc1F` (stereo not drawn) [Example 8] came in with an IC50 of under 10 nM.
The result for `O=C1CCNc2c1c(N1CCOCC1)nc1c(-c3cnc4ccccc4c3)cnn21` [Example 19, 5-morpholino-3-(quinolin-3-yl)-8,9-dihydropyrazolo[1,5-a]pyrido[3,2-e]pyrimidin-6(7H)-one] reads 10 to 100 nM; that for `CC(NC1CCOCC1)c1nc2c(-c3cnc4ccc(F)cc4c3)cnn2c2c1C(=O)CCN2` (stereo not drawn) [Example 28, 3-(6-fluoroquinolin-3-yl)-5-(1-(tetrahydro-2H-pyran-4-ylamino)ethyl)-8,9-dihydropyrazolo[1,5-a]pyrido[3,2-e]pyrimidin-6(7H)-one], over 100 nM; that for `Cn1ccc(-c2ccc(-c3cnn4c5c(c(C6CC7CCC(C6)N7C(=O)c6nnc[nH]6)nc34)C(=O)CCN5)cn2)n1` (stereo not drawn) [Example 4], under 10 nM.
The result for `C[C@@H]1CN(c2nc3c(-c4ccc(-c5ccccc5)nc4)cnn3c3c2C(=O)CCN3)C[C@H](C)O1` [Example 20, 5-((2R,6S)-2,6-dimethylmorpholino)-3-(6-phenylpyridin-3-yl)-8,9-dihydropyrazolo[1,5-a]pyrido[3,2-e]pyrimidin-6(7H)-one] reads 10 to 100 nM; that for `C[C@@H](O)C(=O)N1CCC(c2nc3c(-c4ccc(-c5ccccc5)nc4)cnn3c3c2C(=O)CCN3)CC1` [Example 17], under 10 nM; that for `O=C1CCNc2c1c(C1C[C@H]3COC[C@@H](C1)N3C(=O)c1nc[nH]n1)nc1c(-c3ccc(-c4ccccc4)nc3)cnn21` (stereo partly drawn) [Example 27, 5-((1R,5S)-9-(1H-1,2,4-triazole-3-carbonyl)-3-oxa-9-azabicyclo[3.3.1]nonan-7-yl)-3-(6-phenylpyridin-3-yl)-8,9-dihydropyrazolo[1,5-a]pyrido[3,2-e]pyrimidin-6(7H)-one], under 10 nM.

The values above are taken from US8703784B2, “Substituted pyrazolo[1,5-a]pyrido[3.2-e]pyrimidin-6-one inhibitors of mammalian target of rapamycin” (Merck Sharp & Dohme Corp., priority 2010, dated 2014).
